Source: paper PMC9428149, “Tackling recalcitrant Pseudomonas aeruginosa infections in critical illness via anti-virulence monotherapy” (Nature Communications, 2022)

What was measured:
[1] = system: pqsA promoter (PA14 PpqsA-GFPASV); assay: pqsA-GFP reporter expression; format: cell-based, Pseudomonas aeruginosa; conditions: PA14 PpqsA-GFPASV; 50µM per b210 (method b76 says 10 µM)
Protocol: The expression levels of pqsA, which is representative of the pqsABCDE operon transcription, were monitored in the presence of the MvfR inhibitors using PA14 cells containing the PpqsA-GFPASV, a reporter construct of the pqsA promoter fused to a short half-life GFP gene in, such that quantitative quenching of fluorescence corresponds to pqsA promoter repression[22],[32],[48]. […] GFP fluorescence levels were measured at λex = 485 nm/λem = 535 nm after 10 seconds of shaking every 15 min up to 12 h. The IC50 of PpqsA-GFP expression levels was performed as above using the same 13 different concentrations (0.0122–50 μM) for each of the 13 compounds tested.

[2] = system: pyocyanin production in PA14; assay: Pyocyanin production assay; conditions: PA14; 50µM of each inhibitor (method says 10 μM); vs vehicle
[3] = system: MvfR-regulated small molecules in PA14; assay: Production of HAQs, 2-AA, DHQ and AA in PA14 cultures (LC-MS); conditions: PA14, 50µM inhibitor; for % Production AA: anthranilic acid, precursor control

SMILES	% Production pqsA-GFP [1] [%]	% Production Pyocyanin [2] [%]	% Production 2-AA [3] [%]	% Production DHQ [3] [%]	% Production HHQ [3] [%]	% Production HQNO [3] [%]	% Production PQS [3] [%]	% Production AA [3] [%]
CC(=O)c1ccc(NC(=O)CC(=O)Nc2ccc(C#N)cc2)cc1 [D49]	28	66	90	106	120	101	119	131
N#Cc1ccc(NC(=O)CC(=O)Nc2ccc(C(=O)C(F)(F)F)cc2)cc1 [D50]	102	84	140	89	107	103	104	176
N#Cc1ccc(NC(=O)CC(=O)Nc2ccc([N+](=O)[O-])cc2)cc1 [D51]	10	3	7	12	3	18	6	263
N#Cc1ccc(NC(=O)CC(=O)Nc2ccc(N)cc2)cc1 [D52]	90	87	101	103	92	92	86	115
CC(=O)Nc1ccc(NC(=O)CC(=O)Nc2ccc(C#N)cc2)cc1 [D53]	85	103	93	98	75	85	88	56
N#Cc1ccc(NC(=O)CC(=O)Nc2ccc(NC(=O)C(F)(F)F)cc2)cc1 [D54]	85	94	117	108	103	101	101	82
CS(=O)(=O)Nc1ccc(NC(=O)CC(=O)Nc2ccc(C#N)cc2)cc1 [D55]	131	100	95	80	130	98	115	117
N#Cc1ccc(NC(=O)CC(=O)Nc2ccc(I)cc2)cc1 [D56]	6	13	72	136	63	69	62	180
O=C(CC(=O)Nc1ccc([N+](=O)[O-])cc1)Nc1ccc(Oc2ccccc2)cc1 [D58]	9	6	22	45	20	23	19	101
O=C(CC(=O)Nc1ccc(Oc2ccccc2)cc1)Nc1ccc(I)cc1 [D59]	81	72	92	93	99	97	93	131
O=C(CC(=O)Nc1ccc([N+](=O)[O-])cc1O)Nc1ccc(Oc2ccccc2)cc1 [D61]	7	6	12	8	1	8	6	112
N#Cc1ccc(NC(=O)CC(=O)Nc2ccc(Oc3ccccc3)cc2)c(N)c1 [D62]	6	7	10	16	2	13	9	107
N#Cc1ccc(NC(=O)CC(=O)Nc2ccc(Oc3ccccc3)cc2)c(O)c1 [D63]	7	6	5	4	0	4	4	68
O=C(CC(=O)Nc1ccc(Oc2ccccc2)cc1)Nc1ccc(Br)cc1 [D64]	61	48	78	85	88	88	100	50
O=C(CC(=O)Nc1ccc(Oc2ccccc2)cc1)Nc1ccc(Cl)cc1 [D67]	41	26	84	105	101	105	106	155
O=C(CC(=O)Nc1ccc(Oc2ccccc2)cc1)Nc1ccc(F)cc1 [D68]	52	33	84	109	121	121	137	127
Cc1cc(F)ccc1NCC(=O)Nc1cccc(C#N)c1 [G1]	84	103	122	–	100	101	109	–
Cc1cc(F)ccc1NCC(=O)Nc1ccc(C(F)(F)F)cc1 [G2]	46	61	68	81	110	86	93	–
Cc1cc(F)ccc1NCC(=O)Nc1ccccc1C#N [G3]	96	113	123	–	99	111	122	–
Cc1cc(F)ccc1NCC(=O)Nc1ccc(F)cc1 [G4]	92	84	80	85	95	92	88	–
Cc1cc(F)ccc1OCC(=O)Nc1ccc(C#N)cc1 [G5]	98	98	63	83	114	111	114	54
Cc1cc(F)ccc1NC(C)C(=O)Nc1ccc(C#N)cc1 (stereo not drawn) [G6]	87	110	152	–	106	131	115	–
